This is an account of results in US8071383B2, “D-amino acid selection for soybean” (BASF Plant Science GmbH, priority 2006, dated 2011).

Assay [1] has as its system soybean explants. Kind of assay: SELDA selection and co-cultivation hormones, transformation efficiency. The settings on record: for Ave TE (%) / Confirmed events / TE range (%): vector RLM407, D-serine selection. The assay is classed as cell-based, Glycine max. Here is the method:
In the first experiment, the experimental design included 10 repetitions over time (cutting experiments by 3 researchers) with 4 different co-cultivation media (treatments) per repetition and a minimum of 50 explants per treatment. Solid co-cultivation was prepared as stated earlier except the hormone, BAP, was replaced with one of the 4 following hormones: 7.5 μM BAP, 1.0 μM kinetin, 5.0 μM kinetin, or 7.5 μM kinetin. In the second experiment, the experimental design included 3 repetitions over time (cutting experiments by 1 researcher) with 5 different co-cultivation media (treatments) per repetition and a minimum of 50 explants per treatment. Solid co-cultivation was prepared by replacing BAP with one of the 5 following hormones: 7.5 μM BAP, 1.0 μM kinetin, 3 μM kinetin, 5 μM kinetin, or 7 μM kinetin.
For both experiments, explants were prepared, inoculated with 50 mL of liquid co-cultivation medium containing SHA017/pSB1 carrying vector RLM407 for 30 minutes, and then randomly placed onto 1 of 4 or 5 solid co-cultivation media treatments, respectively. The protocol was followed as stated above with the D-serine selection regime: one week on shoot induction without selection, 3 weeks on shoot induction medium with 7.5 mM D-serine, then 5 mM D-serine throughout shoot elongation. Only one shoot per explant was removed to eliminate regeneration of clones. Putative transformants were confirmed for the presence of the dsda gene using quantitative PCR (TaqMan) and the transformation efficiency (TE) was calculated using the formula: [(number of dsda positive TaqMan confirmed independent events/total number of explants inoculated (n))*100].

Assay [2] deals with soybean primary node explants inoculated with REW008. The assay is described as follows: D-alanine and D-alanine/D-serine killing curves using primary node explants. The class given is cell-based, Glycine max. As to conditions: for D-alanine Kill Curve-regeneration (%) after 3 weeks on SIM: Experiment 1; for D-alanine + 7.5 mM D-serine Kill Curve-regeneration (%) after 3 weeks on SIM: Experiment 2. Here is the method: Kill curves for D-alanine selection with and without 7.5 mM D-serine were conducted for future experiments using dao1 as a selectable marker gene. The combination of using D-alanine and D-serine was also performed for the dao1 gene which can metabolize both D-alanine and D-serine. The binary plasmids RET019 (Pactin-dao1, Pubi-gus) and REW008 (Pnos-bar, Pubi-gus) were used as a positive and a negative control, respectively, and the T-DNA mobilized into soybean using Agrobacterium rhizogenes strain SHA017pSB1.
Explants were inoculated with Agrobacterium, co-cultivated for 5 days, then moved onto shoot induction medium with or without selection for one week. After that time, explants were transferred onto new SIM with selection.
In experiment 1, D-alanine was added to the SIM medium at the following concentrations: 0, 3, 7.5, 10, 20, 30, and 50 mM.
In experiment 2, D-alanine was added in the same concentrations with 7.5 mM D-serine.
The experimental design was as follows: T(treatment)1: 7 explants inoculated with REW008 with 1 week recovery; T2: 7 explants inoculated with REW008 with no recovery; The results of the experiment are shown in Table 2b. […] This drop was not seen on explants with recovery until 20 mM D-alanine. When in combination with D-serine, the explants do have reduced regeneration at lower concentrations, between 7.5 and 10 mM.

The mark [3] stands for this setting: Table 6 (experiment 1), 1 uM Kinetin in co-cultivation medium.
Setting [4] is: Table 6 (experiment 1), 5 uM Kinetin in co-cultivation medium.
The mark [5] stands for this setting: Table 6 (experiment 1), 7.5 uM Kinetin in co-cultivation medium.
[6] abbreviates: Table 7 (experiment 2), 1 uM Kinetin in co-cultivation medium.
[7] abbreviates: Table 7 (experiment 2), 3 uM Kinetin in co-cultivation medium.
Where [8] appears, read: Table 7 (experiment 2), 5 uM Kinetin in co-cultivation medium.
Setting [9] is: Table 7 (experiment 2), 7 uM Kinetin in co-cultivation medium.
Setting [10] is: Table 6 (experiment 1), 7.5 uM BAP in co-cultivation medium.
Setting [11] is: Table 7 (experiment 2), 7.5 uM BAP in co-cultivation medium.

The structures appear in SMILES notation.

`c1coc(CNc2ncnc3[nH]cnc23)c1` [Kinetin]: the “Ave TE (%)” value in assay [1] (setting [3]) is 1.4%; in assay [1] (setting [4]) it was 2.3%; in assay [1] (setting [5]) it was 2.7%; in assay [1] (setting [6]), 3.7%; in assay [1] (setting [7]), 2.5%; in assay [1] (setting [8]), 1.8%. In addition, the “Ave TE (%)” value in assay [1] (setting [9]) is given as 2.2%. The Confirmed events in assay [1] (setting [3]) is 10; in assay [1] (setting [4]) it was 9; in assay [1] (setting [5]), 19; in assay [1] (setting [6]) it was 8; in assay [1] (setting [7]), 6; in assay [1] (setting [8]) it was 4. In assay [1] (setting [9]), this compound came in with a Confirmed events of 5. The “TE range (%)” value in assay [1] (setting [3]) is recorded as 0-6.4%; in assay [1] (setting [4]), 0-4.2%; in assay [1] (setting [5]), 0-9.8%; in assay [1] (setting [6]) it was 1.3-8.1%; in assay [1] (setting [7]), 2.3-2.7%; in assay [1] (setting [8]), 1.2-3%. In addition, in assay [1] (setting [9]), the “TE range (%)” value was 0-5.2%. Besides, the “average transformation efficiency with kinetin in the co-cultivation media compared with BAP” value in assay [1] (both experiments) is on record as “higher average transformation efficiencies”.
`C[C@@H](N)C(=O)O` [D-alanine]: the “D-alanine Kill Curve-regeneration (%) after 3 weeks on SIM” value in assay [2] (3 mM D-alanine, T1: REW008 with 1 week recovery) is reported as 100%; in assay [2] (3 mM D-alanine, T2: REW008 with no recovery), 71%; in assay [2] (7.5 mM D-alanine, T1: REW008 with 1 week recovery), 100%; in assay [2] (7.5 mM D-alanine, T2: REW008 with no recovery), 86%; in assay [2] (10 mM D-alanine, T1: REW008 with 1 week recovery) it was 100%; in assay [2] (10 mM D-alanine, T2: REW008 with no recovery), 71%. The “D-alanine Kill Curve-regeneration (%) after 3 weeks on SIM” value was determined as 100% in assay [2] (20 mM D-alanine, T1: REW008 with 1 week recovery); 27% in assay [2] (20 mM D-alanine, T2: REW008 with no recovery); 29% in assay [2] (30 mM D-alanine, T1: REW008 with 1 week recovery); 0% in assay [2] (30 mM D-alanine, T2: REW008 with no recovery); 0% in assay [2] (50 mM D-alanine, T1: REW008 with 1 week recovery); 0% in assay [2] (50 mM D-alanine, T2: REW008 with no recovery). Moreover, the “D-alanine + 7.5 mM D-serine Kill Curve-regeneration (%) after 3 weeks on SIM” value in assay [2] (3 mM D-alanine + 7.5 mM D-serine, T1: REW008 with 1 week recovery) is 100%; in assay [2] (3 mM D-alanine + 7.5 mM D-serine, T2: REW008 with no recovery), 100%; in assay [2] (7.5 mM D-alanine + 7.5 mM D-serine, T1: REW008 with 1 week recovery), 100%; in assay [2] (7.5 mM D-alanine + 7.5 mM D-serine, T2: REW008 with no recovery), 71%; in assay [2] (10 mM D-alanine + 7.5 mM D-serine, T1: REW008 with 1 week recovery) it was 71%; in assay [2] (10 mM D-alanine + 7.5 mM D-serine, T2: REW008 with no recovery), 57%. Besides, the “D-alanine + 7.5 mM D-serine Kill Curve-regeneration (%) after 3 weeks on SIM” value in assay [2] (20 mM D-alanine + 7.5 mM D-serine, T1: REW008 with 1 week recovery) came out at 57%; in assay [2] (20 mM D-alanine + 7.5 mM D-serine, T2: REW008 with no recovery) it was 0%; in assay [2] (30 mM D-alanine + 7.5 mM D-serine, T1: REW008 with 1 week recovery), 0%; in assay [2] (30 mM D-alanine + 7.5 mM D-serine, T2: REW008 with no recovery) it was 14%; in assay [2] (50 mM D-alanine + 7.5 mM D-serine, T1: REW008 with 1 week recovery), 0%; in assay [2] (50 mM D-alanine + 7.5 mM D-serine, T2: REW008 with no recovery), 0%. In addition, the “D-alanine concentration at which the regeneration frequency drops below 70%” value in assay [2] (explants exposed immediately after co-cultivation) is 30 mM; in assay [2] (explants with recovery), 20 mM.
With `c1ccc(CNc2ncnc3nc[nH]c23)cc1` [BAP, 6-benzylaminopurine], in assay [1] (setting [10]), the “Ave TE (%)” value is reported as 0.4%, the Confirmed events came out at 3 and the “TE range (%)” value is reported as 0-2.5%. For the same compound, in assay [1] (setting [11]), the “Ave TE (%)” value came to 1.3%, the Confirmed events came to 3 and the “TE range (%)” value is given as 0-2.5%.
